Assay results reported in ChEMBL document CHEMBL4406883, “Synthesis and structure-activity relationships of novel camphecene analogues as anti-influenza agents” (Bioorg Med Chem Lett, 2019).
Active and inactive are the calls of the source. The calls are words filed in the database; no cut-off is given here.

How the values were obtained:
[1] = system: Influenza A virus (A/Puerto Rico/8/1934(H1N1)); type: functional, organism-based, pdm09
[2] = Cytotoxicity against dog MDCK cells assessed as cell death incubated for 48 hrs by MTT assay; type: cell-based, Canis lupus familiaris; conditions: read-out: CTD50
in vitro = conditions: dog, MDCK cells
Description: Selectivity index, ratio of CTD50 for dog MDCK cells to IC50 for Influenza A virus (A/Puerto Rico/8/34 (H1N1)) pdm09 infected in MDCK cells

[3] = system: Influenza A virus (A/Puerto Rico/8/1934(H1N1)); type: functional, organism-based; conditions: pdm09, 300 umol/l
[4] = system: Influenza A virus (A/Puerto Rico/8/1934(H1N1)); type: functional, organism-based; conditions: pdm09, 300 umol/l; remark: listed apart in the source
[5] = Influenza A virus, pdm09, MDCK, read-out: IC50

Structure (SMILES) | IC50 [1, 5] [µM] | CC50 at 48 h [2] [µM] | selectivity ratio (in vitro) | IC50 [1] | inhibition [3] | inhibition [4]
CC1(C)[C@@H]2CC[C@@]1(C)/C(=N/CCN1CCCC1)C2 | 12 | > 1260 | 106 |  |  | 
CC1(C)[C@@H]2CC[C@@]1(C)/C(=N/CCN1CCNCC1)C2 | 37 | 1200 | 33 |  |  | 
CC(N)C12CC3CC(CC(C3)C1)C2 (stereo unspecified) [RIMANTADINE] | 67 |  | 5 |  |  | 
CC1CCN(CC/N=C2\C[C@H]3CC[C@]2(C)C3(C)C)CC1 | 25 | 294 | 12 |  |  | 
CC1(C)[C@@H]2CC[C@@]1(C)/C(=N/CCSc1ccccn1)C2 | 6 | 503 | 91 |  |  | 
CC1(C)[C@@H]2CC[C@@]1(C)/C(=N/CCO)C2 | 5000 |  | 500 |  |  | 
CCN1CCN(CC/N=C2\C[C@H]3CC[C@]2(C)C3(C)C)CC1 | 101 | 222 | 2 |  |  | 
CC1(C)[C@@H]2CC[C@@]1(C)/C(=N/CCN1CCCCC1)C2 | 27 | > 1140 | 43 |  |  | 
CC1(C)[C@@H]2CC[C@@]1(C)/C(=N/CCN1CCC(O)CC1)C2 |  | > 1030 | 1 | Not Active |  | 
CN1CCN(CC/N=C2\C[C@H]3CC[C@]2(C)C3(C)C)CC1 | 45 | 1080 | 24 |  |  | 
CC1(C)[C@@H]2CC[C@@]1(C)/C(=N/CCSc1ncccn1)C2 | 6 | > 1020 | 183 |  | Active | inactive
Cn1ccnc1SCC/N=C1\C[C@H]2CC[C@]1(C)C2(C)C | 341 | 1130 | 3 |  |  | 
NC12CC3CC(CC(C3)C1)C2 [AMANTADINE] | 64 |  | 4 |  |  | 
CC1(C)[C@@H]2CC[C@@]1(C)/C(=N/CCSc1ccc(Cl)cc1)C2 | 47 | 170 | 4 |  |  | 
CC1(C)[C@@H]2CC[C@@]1(C)/C(=N/CCSc1nnc[nH]1)C2 | 24 | 197 | 8 |  |  | 
CC1(C)[C@@H]2CC[C@@]1(C)/C(=N/CCSc1nc3ccccc3[nH]1)C2 | 21 | 406 | 20 |  |  | 
NC(=O)c1ncn([C@@H]2O[C@H](CO)[C@@H](O)[C@H]2O)n1 [RIBAVIRIN] | 25 | > 2000 | > 81 |  |  | 
CC1(C)[C@@H]2CC[C@@]1(C)/C(=N/CCSc1nc3ccccc3s1)C2 | 19 | 383 | 20 |  |  | 
CC1(C)[C@@H]2CC[C@@]1(C)/C(=N/CCSC1=NCCS1)C2 | 33 | 753 | 23 |  |  | 
